The test system of data set [1] is lethal effect of 125 mgm/kg of pentylene tetrazole. Kind of data set: Pentetrazole antagonism, mouse. The format is in vivo, mouse (albino, NMRI). The conditions noted are these: po, 1 h, peroral, suspension in olive oil, 125 mgm/kg pentylene tetrazole i.p. one hour after test compound, graphically determined. The protocol:
(§1) Albino mice (NMRI) having a body weight of 20 to 25 gm or albino rats (FW49) having a body weight of 140 to 200 gm were used for the tests, and the test compound was in all cases administered perorally in suspension in olive oil by means of an esophageal sound.
(§2) The pentylene tetrazole is administered intraperitoneally one hour after administration of the test compound [see M. I. Gluckmann, Curr. Ther. Res. 7, 721 (1965)].
(§3) The values shown in the following table are graphically determined.

For data set [2] the test system is unchanged. Kind of data set: Pentetrazole antagonism, rat. The format is in vivo, rat (albino, FW49). As to conditions: po, 1 h, peroral, suspension in olive oil, 125 mgm/kg pentylene tetrazole i.p. one hour after test compound, graphically determined. Here is the method: as §1, §2, §3
In data set [3] the test system is test animals in a conflict situation. Kind of data set: Conflict situation (inhibition of passive avoidance). In kind it is in vivo, rat (albino, FW49). The conditions noted are these: po; rat; peroral, suspension in olive oil; dose at which animals depress lever ten times despite signalled shock; graphically determined.
From the text: as §1
Determination of the dose of the test compound (DT10) at which the test animals in a conflict situation depress a lever ten times to receive a food pellet, even though a simultaneous visual signal indicates to them that they will also receive an electrical shock at the same time [see J. Geller, Arch. Int. Pharmacodyn. 149, 243 (1964)].
as §3

A short description of a further data set: Acute toxicity. The arrangement: species or system mouse (albino, NMRI). As to conditions: in vivo, po; mouse; peroral, suspension in olive oil; graphically determined.
From the text: as §1
Determination of the median lethal dose (LD50), i.e. the dose which causes 50% of the test animals to die [Litchfield and Wilcoxon, J. Phamacol. Exper. Therap. 96,99 (1949)].
as §3

In general, ED50 refers to the dose at which the effect has come halfway, by size or by number of responders. The low end stands for greater potency, the high end for weaker potency. As usually defined, the LD50 is the dose expected to kill half of the subjects tested. The low end stands for a more toxic substance, the high end for a less toxic substance.

`O=c1[nH]nc2n1-c1sc(Br)cc1C(c1ccccc1Cl)=NC2` [Example 1, 8-Bromo-6-(o-chloro-phenyl)-4H-s-triazolo[3,4-c]thieno-[2,3-e]1,4-diazepin-1-one]: the median effective dose (ED50) in data set [1] turned out to be 0.37 mg/kg; in data set [2] it was 1.9 mg/kg. The ED (DT10 (ten lever presses)) in data set [3] came out at 1.25 mg/kg. In addition, the LD50 in “Acute toxicity” is > 2000 mg/kg.

(Values after patent US4333944A, “8-Halo-6-phenyl-4H-s-triazolo (3,4-c) thieno 1,4-diazepin-1-ones” (Boehringer Ingelheim GmbH, priority 1977, dated 1982).)
